Patent publication US20130204033A1, “ANTIPROLIFERATIVE COMPOUNDS, CONJUGATES THEREOF, METHODS THEREFOR, AND USES THEREOF” (Medarex, Inc., priority 2009, published 2013)
Read-outs that look alike come from different tables or passages of the source.

Tests used:
Assay type in all cases: cell-based, human
RPMI-8226 = assay: 3H thymidine proliferation assay, RPMI-8226; details: 3H thymidine method, 72 h incubation; read-out: EC50, RPMI-8226
Outline: (§1)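 Cells seeded at 1.0×10^4 cells/well for 3 h, then exposed to 1:3 serial dilutions of free compounds or conjugates for 72 h. 1.0 μCi ^3H-thymidine per well was added for the last 24 h, and incorporation was read by scintillation counting. EC50 is the concentration reducing proliferation by 50%.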

Raji = assay: ATP luminescence proliferation assay, Raji; details: ATP luminescence, 72 h incubation, read-out: EC50 Raji (72 h)
Description: (§2) This example generally describes the procedures used to assay the antiproliferative activity of compounds of this invention or their conjugates. Human tumor cell lines were obtained from the American Type Culture Collection (ATCC), P.O. Box 1549, Manassas, Va. 20108, USA, and cultured according to instruction from the ATCC. Cells were seeded at 1.0×10^3 or 1.0×10^4 cells/well in 96-well plates for 3 h for ATP assays or ^3H thymidine assays, respectively. 1:3 serial dilutions of free (unconjugated) compounds or their conjugates were added to the wells. Plates were allowed to incubate for 24 to 72 h. The ^3H thymidine plates were pulsed with 1.0 μCi of ^3H-thymidine per well for the last 24 hours of the total incubation period, harvested, and read on a Top Count Scintillation Counter (Packard Instruments, Meriden, Conn.). ATP levels in the ATP plates were measured using the […]-GLO® Luminescent Cell Viability kit following the manufacturer's manual and read on a GLOMAX® 20/20 luminometer (both from Promega, Madison, Wis., USA). The EC50 values—the concentration at which an agent inhibits or reduces cell proliferation by 50% —were determined using PRISM™ software, version 4.0 (GraphPad Software, La Jolla, Calif., USA).
(§3) Using the ^3H thymidine or the ATP luminescence assay, or both, the activities of compounds of this invention were assayed against the following cancer cell lines: HCT-15 (colorectal cancer, multi-drug resistant (MDR)); Hep3B (liver cancer); LNCaP (prostate cancer, androgen receptor positive (AR^+)); MDA-MB-231 (breast cancer, estrogen receptor, progesterone receptor, and Her2 negative (triple negative)); A2058 (melanoma); U-87 MG (glioblastoma); NCI-H460 (NSCLC); A549 (NSCLC); HPAC (pancreatic cancer, primary); PC3 (prostate cancer, AR); BT474 (breast cancer, Her2 highly positive (Her2hi)); SKOV3 (ovarian cancer, Her2hi); 786-O (renal cancer); UO-31 (renal cancer, MDR); NCI-H740 (SCLC); DMS53 (SCLC); SK-BR3 (breast cancer, Her2hi); ZR-75 (breast cancer, estrogen receptor positive); OVCAR3 (ovarian cancer); HL-60 (APL); OVCAR8/Adr (ovarian cancer, MDR); CEM-Cl (ALL); Nomo-1 (AML); RPMI-8226 (MM)); Raji (lymphoma); SW-480 (colorectal cancer, metastatic); SW-620 (colorectal cancer); and H226 (lung cancer). (Not all compounds were assayed against all cell lines.)
(§4) Table 3 provides the data for the ATP luminescence proliferation assays, with an incubation period of 48, 72, or 96 h, as noted.

SW-620 = assay: ATP luminescence proliferation assay, SW-620; details: ATP luminescence, SW-620, 96 h incubation; read-out: EC50 SW-620 (96 h)
Description: as §2, §3, §4

HCT-15 [1] = assay: 3H thymidine proliferation assay, HCT-15; details: 3H thymidine method, 72 h incubation; read-out: EC50, HCT-15
Outline: as §1

OVCAR3 [2] = assay: 3H thymidine proliferation assay, OVCAR3; details: 3H thymidine method, 72 h incubation; read-out: EC50, OVCAR3
Outline: as §1

OVCAR8 = assay: 3H thymidine proliferation assay, OVCAR8; details: 3H thymidine method, 72 h incubation; read-out: EC50, OVCAR8
Outline: as §1

HCT-15 [3] = assay: ATP luminescence proliferation assay, HCT-15; details: ATP luminescence
Outline: (§5)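 Antiproliferative EC50 values derive from luminescent ATP measurement in human tumor cells exposed for 48, 72 or 96 h to 1:3 serial dilutions of free compounds or their conjugates, with 1.0×10^3 cells seeded per well 3 h beforehand.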

786-O [4] = assay: ATP luminescence proliferation assay, 786-O; details: ATP luminescence, 786-O, 72 h incubation; read-out: EC50 786-O (72 h)
Outline: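 Read-out: luminescent ATP cell viability after 48, 72 or 96 h incubation, as noted, with 1:3 serial dilutions of unconjugated compounds or their conjugates. Plating was 1.0×10^3 cells/well, 3 h before dosing. EC50 = concentration giving 50% inhibition of proliferation.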

Hep3B = assay: ATP luminescence proliferation assay, Hep3B; details: ATP luminescence, 48 h incubation, read-out: EC50 Hep3B (48 h)
Description: as §2, §3, §4

HPAC [5] = assay: ATP luminescence proliferation assay, HPAC; details: ATP luminescence, 72 h incubation, read-out: EC50 HPAC (72 h)
Description: as §2, §3, §4

HPAC [6] = assay: 3H thymidine proliferation assay, HPAC; details: 3H thymidine method, 72 h incubation; read-out: EC50, HPAC
Outline: as §1

OVCAR3 [7] = assay: ATP luminescence proliferation assay, OVCAR3; details: ATP luminescence
Outline: as §5

Nomo-1 = assay: ATP luminescence proliferation assay, Nomo-1; details: ATP luminescence
Description: as §2, §3, §4

786-O [8] = assay: 3H thymidine proliferation assay, 786-O; details: 3H thymidine method, 72 h incubation; read-out: EC50, 786-O
Outline: as §1

NCI-H460 = assay: ATP luminescence proliferation assay, NCI-H460; details: ATP luminescence, NCI-H460, 72 h incubation; read-out: EC50 NCI-H460 (72 h)
Description: as §2, §3, §4

BT474 = assay: 3H thymidine proliferation assay, BT474; details: 3H thymidine method, 72 h incubation; read-out: EC50, BT474
Outline: as §1

SKOV3 = assay: 3H thymidine proliferation assay, SKOV3; details: 3H thymidine method, 72 h incubation; read-out: EC50, SKOV3
Outline: as §1

MDA-MB-231 = assay: 3H thymidine proliferation assay, MDA-MB-231; details: 3H thymidine method, 72 h incubation; read-out: EC50, MDA-MB-231
Outline: as §1

[9] = HCT-15, 72 h incubation, read-out: EC50 HCT-15 (72 h)
[10] = OVCAR3, 48 h incubation, read-out: EC50 OVCAR3 (48 h)
[11] = Nomo-1, 48 h incubation, read-out: EC50 Nomo-1 (48 h)

| SMILES | EC50 (RPMI-8226) [nM] | EC50 (Raji) [nM] | EC50 (SW-620) [nM] | EC50 (HCT-15 [1]) [nM] | EC50 (OVCAR3 [2]) [nM] | EC50 (OVCAR8) [nM] | EC50 (HCT-15 [3]; [9]) [nM] | EC50 (786-O [4]) [nM] | EC50 (Hep3B) [nM] | EC50 (HPAC [5]) [nM] | EC50 (HPAC [6]) [nM] | EC50 (OVCAR3 [7]; [10]) [nM] | EC50 (786-O [8]) [nM] | EC50 (NCI-H460) [nM] | EC50 (BT474) [nM] | EC50 (SKOV3) [nM] | EC50 (MDA-MB-231) [nM] | EC50 (Nomo-1; [11]) [nM] | further results |
| --- | --- | --- | --- | --- | --- | --- | --- | --- | --- | --- | --- | --- | --- | --- | --- | --- | --- | --- | --- |
| CC[C@H](C)[C@H](NC(=O)[C@H]1CCCCN1C)C(=O)N(COC(=O)CC(C)C)[C@H](C[C@@H](O)c1nc(C(=O)N[C@@H](Cc2ccccc2)C(=O)OC)cs1)C(C)C [Compound 28] | 8.7 | 15 | 21 | 223 | 3.1 | 27 | 132 | 29 | 17 | 5.9 | 34 | 14 | 61 | 35 | > 100 | 9.9 | > 100 |  | EC50 (Nomo-1; Nomo-1, 72 h incubation, read-out: EC50 Nomo-1 (72 h)): 0.82 nM |
| CC[C@H](C)[C@H](NC(=O)[C@H]1CCCCN1C)C(=O)N(COC(=O)CC(C)C)[C@H](C[C@@H](OC(C)=O)c1nc(C(=O)N[C@@H](Cc2ccccc2)C(=O)OC)cs1)C(C)C [Compound 29] | 0.034 | 2.1 | 1.5 | 0.18 | 0.02 | 0.7 | 4.5 | 2.8 | 1.6 | 4.9 | 0.069 | > 100 | 1.2 | 3 | 0.57 | 0.029 | 0.13 | 0.24 |  |
| CC[C@H](C)[C@H](NC(=O)[C@H]1CCCCN1C)C(=O)N(COC)[C@H](C[C@@H](OC)c1nc(C(=O)N[C@@H](Cc2ccccc2)C(=O)OC)cs1)C(C)C [Compound 29c] | 16 | 36 | 8.4 | 2.4 | 3.6 | 1.4 |  | 34 | 75 | 4.6 | 32 |  | 3.9 | 6 | 12 | 1.9 | 4.8 | 2.9 | EC50 (HCT-15 [3]; HCT-15, 48 h incubation, read-out: EC50 HCT-15 (48 h)): 200 nM; EC50 (OVCAR3 [7]; OVCAR3, 72 h incubation, read-out: EC50 OVCAR3 (72 h)): 99 nM |
